The values below come from patent US20260337208A1, “HETEROCYCLIC DERIVATIVES AS JANUS KINASE INHIBITORS” (CHIESI FARMACEUTICI S.P.A., priority 2022, published 2026).

One test concerns the target JAK1 (Homo sapiens, UniProt P23458). As to the kind of experiment: Biochemical potency on JAK1, TR-FRET (LANCE Ultra kinase assay). To be noted: ATP corresponding to Km; cell-free; read-out: JAK1 inhibitory activity (pIC50) (converted). The procedure:
(§1) The objective of this study was to assess the capability of compounds to inhibit all 4 JAK isoforms activity in a cell-free environment. Assay for JAK 1, JAK 2, JAK 3 and TYK2 were performed by Time-resolved fluorescence resonance energy transfer (TR-FRET) technology. It consists in the interaction of two labelled binding partners detected by the energy transfer from an excited donor to an acceptor dye and measurement of light emission by the acceptor dye. LANCE Ultra kinase assay was used. In presence of JAK 1, JAK 2, JAK 3 and TYK2 kinases and ATP (corresponding to Km), the ULight peptide substrate (LANCE Ulight-JAK-1 (Tyr1023) Peptide, Perkin Elmer, TRF0121) is phosphorylated. It is then captured by Eu-anti-phospho-substrate antibody (LANCE Eu-W1024 Anti-phosphotyrosine (PT66), Perkin Elmer, AD0069), which bring the Eu-chelate donor and ULight acceptor dyes into close proximity. Upon excitation at 320 nm, the Eu-chelate transfers its energy to the ULight dye, resulting in a fluorescent light emission at 665 nm.
(§2) Serial dilutions of compounds in pure DMSO are prepared from 10 mM DMSO stock solutions. Compounds were tested in 384-well plate for 11 consecutive 5-fold dilutions starting from 20 μM highest concentration (20 μM-[…]). 200 nL of compound were transferred from mother plate to test plate by using Mosquito (TTP labtech). Assay was performed in 384-well Perkin Elmer test plate in 20 μL assay volume (kinase reaction) and 40 μL total volume (stopping reagent and antibody detection reagents). In 10 μL of substrate solution (peptide+ATP) 30/50/20/10 nM of peptide and 20/0.7/0.2/12 μM of ATP were added for JAK 1, JAK 2, JAK 3 and TYK2 respectively. 10 μL of enzyme solution was added to kinase reaction at these concentrations: 0.15/0.083/0.025/0.144 ng/μL of JAK 1, JAK 2, JAK 3 and TYK2 respectively. After shaking and 1.5 h of incubation at r.t., 20 μL of Stop (10 μL EDTA) and Detection mixture (10 μL Europium-anti-phospho antibody, final: 0.5 nM) were added. Reading was performed after 1 h of incubation on a En Vision 2104 reader (Perkin Elmer).
(§3) Calculation of IC50 data, curves and QC analysis was performed by using Excel tool and GraphPadPrism software, v9. Briefly, individual concentration-effect curves are generated by plotting the logarithm of the tested concentration of tested compounds (X) vs. corresponding percent inhibition values (Y) using least squares (ordinary) fit. Best fit IC50 values are calculated using Log (inhibitor) vs. normalized response—Variable slope equation, where Y=100/(1+10^((LogIC50−X)*HillSlope)). QC criteria parameters (Z′, S:B, R2, HillSlope) were checked for every IC50 curve. Calculation of IC50 data, curves and QC analysis were made using Excel tools and GraphPadPrism software. QC criteria parameters: Z′≥0.5, Hill Slope range 0.5 to 5, S:B>2.
For orientation: In TR-FRET formats the signal depends on donor and acceptor labels being close together.

The target of the next test is JAK2 (Homo sapiens, UniProt O60674). As to the kind of experiment: Biochemical potency on JAK2, TR-FRET (LANCE Ultra kinase assay). The settings on record: ATP corresponding to Km; cell-free; read-out: JAK2 inhibitory activity (pIC50) (converted). The procedure:
as §1, §2, §3

In another test the target is T1, JAK3 (Homo sapiens, UniProt P52333).
T1 sequence (P52333 1-1124): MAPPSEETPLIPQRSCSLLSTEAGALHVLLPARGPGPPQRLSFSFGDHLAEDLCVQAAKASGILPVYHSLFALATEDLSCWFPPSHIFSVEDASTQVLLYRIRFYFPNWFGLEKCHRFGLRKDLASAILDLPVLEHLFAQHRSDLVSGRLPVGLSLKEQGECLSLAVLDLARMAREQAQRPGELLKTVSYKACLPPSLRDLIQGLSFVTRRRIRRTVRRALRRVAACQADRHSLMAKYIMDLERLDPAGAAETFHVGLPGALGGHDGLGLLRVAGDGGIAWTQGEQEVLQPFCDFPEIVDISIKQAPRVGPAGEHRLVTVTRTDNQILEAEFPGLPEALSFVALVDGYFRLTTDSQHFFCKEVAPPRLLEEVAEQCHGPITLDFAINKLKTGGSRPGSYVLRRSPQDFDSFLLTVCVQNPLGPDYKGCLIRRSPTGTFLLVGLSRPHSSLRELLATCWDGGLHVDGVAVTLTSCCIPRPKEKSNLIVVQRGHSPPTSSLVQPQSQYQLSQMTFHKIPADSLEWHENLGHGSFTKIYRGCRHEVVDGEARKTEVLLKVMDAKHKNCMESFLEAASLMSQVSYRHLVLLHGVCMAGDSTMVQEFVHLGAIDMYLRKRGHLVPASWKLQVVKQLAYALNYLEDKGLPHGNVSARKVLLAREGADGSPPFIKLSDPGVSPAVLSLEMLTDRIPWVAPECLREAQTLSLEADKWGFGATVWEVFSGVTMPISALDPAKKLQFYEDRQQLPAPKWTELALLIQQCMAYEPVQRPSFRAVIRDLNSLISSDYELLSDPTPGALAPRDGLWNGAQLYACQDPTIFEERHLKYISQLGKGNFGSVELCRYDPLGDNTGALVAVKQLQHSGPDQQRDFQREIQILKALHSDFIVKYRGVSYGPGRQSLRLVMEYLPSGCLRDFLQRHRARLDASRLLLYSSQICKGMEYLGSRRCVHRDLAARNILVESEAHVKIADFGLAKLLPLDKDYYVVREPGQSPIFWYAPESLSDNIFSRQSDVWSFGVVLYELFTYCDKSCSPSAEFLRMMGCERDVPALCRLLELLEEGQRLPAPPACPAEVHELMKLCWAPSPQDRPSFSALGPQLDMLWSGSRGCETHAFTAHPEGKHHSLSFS
As to the kind of experiment: Biochemical potency on JAK3, TR-FRET (LANCE Ultra kinase assay). To be noted: ATP corresponding to Km; cell-free; read-out: JAK3 inhibitory activity (pIC50) (converted). The procedure: as §1, §2, §3

Another test concerns the target TYK2 (Homo sapiens, UniProt P29597). As to the kind of experiment: Biochemical potency on Tyk2, TR-FRET (LANCE Ultra kinase assay). The settings on record: ATP corresponding to Km; cell-free; read-out: TYK2 inhibitory activity (pIC50) (converted). The procedure: as §1, §2, §3
Test [1] concerns pSTAT6 in BEAS-2B human cell line. As to the kind of experiment: Inhibition of IL-13 induced pSTAT6 in BEAS. The test is classed as cell-based. To be noted: for IC50: Homo sapiens, BEAS-2B, 0.5 h, IL-13 trigger, 30 min, parent compound; for Fold difference parent vs predicted acid metabolite: ratio=IC50 predicted acid metabolite/IC50 ester. How it is done: BEAS-2B human cell line was seeded (100.000 cells/well) and incubated for 48 h at 37° C., 5% CO2, 95% humidity. Compounds were added and incubated 30 min followed by IL-13 as trigger. After 30 min incubation, cells were lysed and pSTAT6 determined by Fastscan phospho-stat6 (Tyr641) sandwich ELISA kit (cell signaling). Inhibitors were tested at 11 consecutive 5-fold dilutions starting from 10 μM (10 μM-[…]) in duplicate. Calculation of IC50 data, curves and QC analysis were made using Excel tools and GraphPadPrism software. QC criteria parameters: Z′≥0.35, Hill Slope range 0.5 to 5, S:B>2.

JAK1, sequence (P23458 whole entry, canonical isoform): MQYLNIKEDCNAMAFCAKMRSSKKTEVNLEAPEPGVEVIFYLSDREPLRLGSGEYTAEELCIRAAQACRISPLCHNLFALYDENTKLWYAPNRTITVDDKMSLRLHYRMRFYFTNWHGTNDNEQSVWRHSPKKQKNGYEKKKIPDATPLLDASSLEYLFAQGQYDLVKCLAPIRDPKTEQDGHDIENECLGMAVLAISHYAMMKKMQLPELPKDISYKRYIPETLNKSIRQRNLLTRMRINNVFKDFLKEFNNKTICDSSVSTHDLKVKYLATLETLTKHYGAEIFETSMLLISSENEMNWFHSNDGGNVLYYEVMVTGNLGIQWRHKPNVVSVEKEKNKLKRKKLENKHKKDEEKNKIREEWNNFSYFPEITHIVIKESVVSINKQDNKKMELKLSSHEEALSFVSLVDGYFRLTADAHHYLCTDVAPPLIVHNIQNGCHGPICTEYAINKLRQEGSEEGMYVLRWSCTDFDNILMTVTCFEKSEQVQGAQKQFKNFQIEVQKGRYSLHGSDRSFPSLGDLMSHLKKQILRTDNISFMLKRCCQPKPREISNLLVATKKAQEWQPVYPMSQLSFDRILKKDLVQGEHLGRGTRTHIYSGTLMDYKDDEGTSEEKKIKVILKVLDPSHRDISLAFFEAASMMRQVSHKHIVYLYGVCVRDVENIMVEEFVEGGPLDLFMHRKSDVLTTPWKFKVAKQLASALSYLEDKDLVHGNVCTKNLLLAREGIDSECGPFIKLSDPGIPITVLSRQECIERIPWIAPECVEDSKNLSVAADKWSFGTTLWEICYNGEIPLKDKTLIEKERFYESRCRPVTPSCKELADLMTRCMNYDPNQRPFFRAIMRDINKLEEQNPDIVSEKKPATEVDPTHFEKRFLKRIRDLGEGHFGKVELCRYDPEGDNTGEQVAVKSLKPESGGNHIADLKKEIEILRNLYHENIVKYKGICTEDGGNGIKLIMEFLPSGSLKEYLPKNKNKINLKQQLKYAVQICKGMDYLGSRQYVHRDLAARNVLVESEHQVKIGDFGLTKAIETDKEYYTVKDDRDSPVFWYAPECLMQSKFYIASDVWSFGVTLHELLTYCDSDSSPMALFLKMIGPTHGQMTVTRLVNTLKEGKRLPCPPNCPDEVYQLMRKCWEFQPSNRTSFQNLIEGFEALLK
TYK2, sequence (P29597 whole entry): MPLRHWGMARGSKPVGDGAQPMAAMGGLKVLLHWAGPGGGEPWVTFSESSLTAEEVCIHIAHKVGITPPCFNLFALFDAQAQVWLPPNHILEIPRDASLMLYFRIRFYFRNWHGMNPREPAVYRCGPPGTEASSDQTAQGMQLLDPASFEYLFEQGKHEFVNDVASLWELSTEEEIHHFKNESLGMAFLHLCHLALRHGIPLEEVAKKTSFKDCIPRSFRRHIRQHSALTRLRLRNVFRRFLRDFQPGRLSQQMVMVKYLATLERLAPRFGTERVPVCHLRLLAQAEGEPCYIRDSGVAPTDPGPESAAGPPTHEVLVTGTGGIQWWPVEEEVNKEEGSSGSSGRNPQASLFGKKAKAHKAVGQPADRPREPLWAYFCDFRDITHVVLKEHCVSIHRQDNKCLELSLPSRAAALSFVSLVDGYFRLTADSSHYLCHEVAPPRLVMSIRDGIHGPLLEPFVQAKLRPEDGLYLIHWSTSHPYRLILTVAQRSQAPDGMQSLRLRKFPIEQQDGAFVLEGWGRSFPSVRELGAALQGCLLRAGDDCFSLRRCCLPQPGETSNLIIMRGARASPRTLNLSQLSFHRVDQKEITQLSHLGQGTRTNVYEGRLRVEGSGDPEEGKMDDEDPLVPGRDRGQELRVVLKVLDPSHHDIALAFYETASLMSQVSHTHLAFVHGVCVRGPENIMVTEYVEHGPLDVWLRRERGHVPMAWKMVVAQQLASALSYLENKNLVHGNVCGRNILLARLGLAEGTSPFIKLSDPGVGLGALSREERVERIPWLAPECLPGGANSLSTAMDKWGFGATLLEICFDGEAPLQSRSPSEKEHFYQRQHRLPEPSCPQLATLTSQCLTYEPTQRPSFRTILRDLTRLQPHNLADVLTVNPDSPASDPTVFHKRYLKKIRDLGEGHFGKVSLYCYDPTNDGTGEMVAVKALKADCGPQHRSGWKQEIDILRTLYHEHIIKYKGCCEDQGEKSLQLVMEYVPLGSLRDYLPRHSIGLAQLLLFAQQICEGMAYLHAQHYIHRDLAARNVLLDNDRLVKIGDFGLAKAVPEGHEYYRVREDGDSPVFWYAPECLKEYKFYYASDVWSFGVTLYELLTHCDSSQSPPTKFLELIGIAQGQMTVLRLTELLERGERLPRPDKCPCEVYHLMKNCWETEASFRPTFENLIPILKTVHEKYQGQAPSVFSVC
JAK2, sequence (O60674 whole entry): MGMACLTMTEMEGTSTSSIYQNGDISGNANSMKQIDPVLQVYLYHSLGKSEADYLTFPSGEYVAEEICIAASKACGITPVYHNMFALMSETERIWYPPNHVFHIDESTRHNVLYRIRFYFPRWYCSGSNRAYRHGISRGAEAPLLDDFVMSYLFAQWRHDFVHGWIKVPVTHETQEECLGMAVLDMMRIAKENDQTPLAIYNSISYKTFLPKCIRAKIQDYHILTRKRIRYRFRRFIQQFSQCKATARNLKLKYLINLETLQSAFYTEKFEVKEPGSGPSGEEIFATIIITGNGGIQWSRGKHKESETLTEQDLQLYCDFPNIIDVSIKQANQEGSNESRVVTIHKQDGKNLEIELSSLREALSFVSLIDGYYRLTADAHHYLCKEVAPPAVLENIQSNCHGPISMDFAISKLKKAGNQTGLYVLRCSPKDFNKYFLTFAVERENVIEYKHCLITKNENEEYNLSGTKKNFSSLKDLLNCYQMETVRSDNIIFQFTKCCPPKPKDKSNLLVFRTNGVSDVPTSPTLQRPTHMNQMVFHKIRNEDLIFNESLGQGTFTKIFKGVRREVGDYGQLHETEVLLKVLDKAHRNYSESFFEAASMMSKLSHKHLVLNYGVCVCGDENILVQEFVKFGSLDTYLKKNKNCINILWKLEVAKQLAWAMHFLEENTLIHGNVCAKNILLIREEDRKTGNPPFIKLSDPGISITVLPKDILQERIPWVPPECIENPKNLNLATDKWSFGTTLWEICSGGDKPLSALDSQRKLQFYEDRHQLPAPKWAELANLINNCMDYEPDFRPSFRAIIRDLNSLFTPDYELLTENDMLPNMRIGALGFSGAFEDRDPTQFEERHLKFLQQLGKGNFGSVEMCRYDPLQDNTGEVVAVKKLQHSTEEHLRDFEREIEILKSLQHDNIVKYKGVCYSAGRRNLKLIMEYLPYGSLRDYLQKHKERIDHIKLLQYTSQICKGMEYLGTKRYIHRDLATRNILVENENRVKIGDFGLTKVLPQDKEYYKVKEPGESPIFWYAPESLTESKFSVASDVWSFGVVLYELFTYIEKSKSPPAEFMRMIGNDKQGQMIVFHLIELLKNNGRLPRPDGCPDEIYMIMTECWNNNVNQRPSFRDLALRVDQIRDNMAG

Take `COc1cc2c(cc1-n1nc(C(=O)OCC3CN(C)CCO3)c3cnc(-c4cnn5cccnc45)cc31)OCCN2` (stereo not drawn) [Example 46, (4-methylmorpholin-2-yl)methyl 1-(6-methoxy-3,4-dihydro-2H-benzo[b][1,4]oxazin-7-yl)-6-(pyrazolo[1,5-a]pyrimidin-3-yl)-1H-pyrazolo[4,3-c]pyridine-3-carboxylate]: the IC50 at JAK1 was no more than 5.01 nM; on JAK2, no more than 5.01 nM; at JAK3 it was no more than 5.01 nM; on TYK2, 5.01 to 50.1 nM; in test [1] it was 5.01 to 50.1 nM. The “Fold difference parent vs predicted acid metabolite” value in test [1] is “kkk (200>ratio≥100)”.

Turning to `COc1cc2c(cc1-n1nc(C(=O)NCCN3CCC(C(=O)OC4CN(C(C)C)C4)CC3)c3cnc(-c4cnn5cccnc45)cc31)OCCN2` [Example 57, 1-isopropylazetidin-3-yl 1-(2-(1-(6-methoxy-3,4-dihydro-2H-benzo[b][1,4]oxazin-7-yl)-6-(pyrazolo[1,5-a]pyrimidin-3-yl)-1H-pyrazolo[4,3-c]pyridine-3-carboxamido)ethyl)piperidine-4-carboxylate], the IC50 at JAK1 was no more than 5.01 nM; at JAK2, no more than 5.01 nM; at JAK3 it was no more than 5.01 nM; at TYK2, 5.01 to 50.1 nM; in test [1], 5.01 to 50.1 nM. The “Fold difference parent vs predicted acid metabolite” value in test [1] is on record as “kkk (200>ratio≥100)”.

On to `COc1cc2c(cc1-n1nc(C(=O)NCCN3CCC(C(=O)OC4CCOCC4)CC3)c3cnc(-c4cnn5cccnc45)cc31)OCCN2` [Example 17, tetrahydro-2H-pyran-4-yl 1-(2-(1-(6-methoxy-3,4-dihydro-2H-benzo[b][1,4]oxazin-7-yl)-6-(pyrazolo[1,5-a]pyrimidin-3-yl)-1H-pyrazolo[4,3-c]pyridine-3-carboxamido)ethyl)piperidine-4-carboxylate], for which the IC50 is no more than 5.01 nM on JAK1; no more than 5.01 nM at JAK2; no more than 5.01 nM on JAK3; 5.01 to 50.1 nM on TYK2; no more than 5.01 nM in test [1]. For the same compound, the “Fold difference parent vs predicted acid metabolite” value in test [1] was “kkkk (ratio≥200)”.

Regarding `COc1cc2c(cc1-n1nc(C(=O)NCCN3CCC(C(=O)OC4CN(C)C4)CC3)c3cnc(-c4cnn5cccnc45)cc31)OCCN2` [Example 21, 1-methylazetidin-3-yl 1-(2-(1-(6-methoxy-3,4-dihydro-2H-benzo[b][1,4]oxazin-7-yl)-6-(pyrazolo[1,5-a]pyrimidin-3-yl)-1H-pyrazolo[4,3-c]pyridine-3-carboxamido)ethyl)piperidine-4-carboxylate], the IC50 at JAK1 is no more than 5.01 nM; on JAK2 it was no more than 5.01 nM; on JAK3, no more than 5.01 nM; on TYK2, 5.01 to 50.1 nM; in test [1], no more than 5.01 nM. The “Fold difference parent vs predicted acid metabolite” value in test [1] is “kkkk (ratio≥200)”.

For `CCC(C)OC(=O)C1CCN(CCNC(=O)c2nn(-c3cc4c(cc3OC)NCCO4)c3cc(-c4cnn5cccnc45)ncc23)CC1` (stereo not drawn) [Example 10, sec-butyl 1-(2-(1-(6-methoxy-3,4-dihydro-2H-benzo[b][1,4]oxazin-7-yl)-6-(pyrazolo[1,5-a]pyrimidin-3-yl)-1H-pyrazolo[4,3-c]pyridine-3-carboxamido)ethyl)piperidine-4-carboxylate], the IC50 on JAK1 was no more than 5.01 nM; at JAK2 it was no more than 5.01 nM; at JAK3 it was no more than 5.01 nM; on TYK2 it was 5.01 to 50.1 nM; in test [1], no more than 5.01 nM. Moreover, in test [1], the “Fold difference parent vs predicted acid metabolite” value is recorded as “kkkk (ratio≥200)”.

With `CCOC(=O)C1CCN(CCOC(=O)Nc2nn(-c3cc4c(cc3OC)NCCS4)c3cc(-c4cnn5cccnc45)ncc23)CC1` [Example 4, ethyl 1-(2-(((1-(6-methoxy-3,4-dihydro-2H-benzo[b][1,4]thiazin-7-yl)-6-(pyrazolo[1,5-a]pyrimidin-3-yl)-1H-pyrazolo[4,3-c]pyridin-3-yl)carbamoyl)oxy)ethyl)piperidine-4-carboxylate], the IC50 (on JAK1; on JAK2; at JAK3; on TYK2; in test [1]) was no more than 5.01 nM in each case. Moreover, the “Fold difference parent vs predicted acid metabolite” value in test [1] was “kk (100>ratio≥10)”.

On to `CCOC(=O)[C@H]1CCN(CCNC(=O)c2nn(-c3cc4c(cc3OC)NCCO4)c3cc(-c4cnn5cccnc45)ncc23)C1` [Example 44, ethyl (S)-1-(2-(1-(6-methoxy-3,4-dihydro-2H-benzo[b][1,4]oxazin-7-yl)-6-(pyrazolo[1,5-a]pyrimidin-3-yl)-1H-pyrazolo[4,3-c]pyridine-3-carboxamido)ethyl)pyrrolidine-3-carboxylate], for which the IC50 is no more than 5.01 nM at JAK1; no more than 5.01 nM on JAK2; no more than 5.01 nM on JAK3; 5.01 to 50.1 nM on TYK2; 5.01 to 50.1 nM in test [1]. For the same compound, the “Fold difference parent vs predicted acid metabolite” value in test [1] is recorded as “kkkk (ratio≥200)”.

As for `COCC(C)(C)OC(=O)C1CCN(CCNC(=O)c2nn(-c3cc4c(cc3OC)NCCO4)c3cc(-c4cnn5cccnc45)ncc23)CC1` [Example 5, 1-methoxy-2-methylpropan-2-yl 1-(2-(1-(6-methoxy-3,4-dihydro-2H-benzo[b][1,4]oxazin-7-yl)-6-(pyrazolo[1,5-a]pyrimidin-3-yl)-1H-pyrazolo[4,3-c]pyridine-3-carboxamido)ethyl)piperidine-4-carboxylate], the IC50 is no more than 5.01 nM on JAK1; no more than 5.01 nM at JAK2; no more than 5.01 nM at JAK3; 5.01 to 50.1 nM on TYK2; no more than 5.01 nM in test [1]. Also, in test [1], the “Fold difference parent vs predicted acid metabolite” value is “kkkk (ratio≥200)”.
